The target of one assay is RAF1 (Homo sapiens, UniProt P04049). Conditions: 1 μM; Run 1, Run 2.
In a further assay the target is CLK3 (Homo sapiens, UniProt P49761). The assay can be described thus: biochemical. Conditions: read-out: % enzyme activity, 1 μM; Run 1, Run 2.
For the next assay, the target named is T1, c-MER (Homo sapiens, UniProt Q12866).
T1 sequence (Q12866 21-999): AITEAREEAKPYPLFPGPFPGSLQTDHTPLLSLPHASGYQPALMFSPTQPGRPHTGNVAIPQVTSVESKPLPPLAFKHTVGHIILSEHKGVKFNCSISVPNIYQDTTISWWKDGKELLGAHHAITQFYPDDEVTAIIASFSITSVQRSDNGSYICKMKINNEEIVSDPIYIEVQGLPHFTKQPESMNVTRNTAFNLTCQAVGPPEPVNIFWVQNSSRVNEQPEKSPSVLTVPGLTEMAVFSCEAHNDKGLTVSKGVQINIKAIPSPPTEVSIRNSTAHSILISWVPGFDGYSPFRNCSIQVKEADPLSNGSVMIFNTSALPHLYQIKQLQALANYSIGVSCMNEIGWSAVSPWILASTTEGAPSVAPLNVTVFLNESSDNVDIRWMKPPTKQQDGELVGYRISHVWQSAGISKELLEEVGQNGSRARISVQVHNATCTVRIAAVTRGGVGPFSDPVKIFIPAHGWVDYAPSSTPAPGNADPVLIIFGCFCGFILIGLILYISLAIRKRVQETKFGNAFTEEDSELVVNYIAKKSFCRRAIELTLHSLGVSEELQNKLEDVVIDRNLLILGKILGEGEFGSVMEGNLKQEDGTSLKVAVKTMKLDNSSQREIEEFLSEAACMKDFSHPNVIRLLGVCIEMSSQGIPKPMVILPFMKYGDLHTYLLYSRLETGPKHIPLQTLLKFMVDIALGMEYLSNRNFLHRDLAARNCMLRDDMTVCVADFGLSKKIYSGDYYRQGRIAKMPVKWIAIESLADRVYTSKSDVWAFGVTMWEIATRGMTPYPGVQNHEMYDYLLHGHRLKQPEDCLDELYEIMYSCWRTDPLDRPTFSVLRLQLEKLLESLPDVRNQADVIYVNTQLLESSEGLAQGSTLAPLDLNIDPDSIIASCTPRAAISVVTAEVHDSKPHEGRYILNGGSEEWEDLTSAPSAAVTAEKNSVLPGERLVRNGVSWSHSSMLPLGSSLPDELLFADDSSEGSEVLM
Conditions: 1 μM; Run 1, Run 2.

A further assay addresses CDK7/cyclin H (Homo sapiens, UniProt P50613). Conditions: 1 μM; Run 1, Run 2.
The next assay has as its target CDK3/cyclin E2 (Homo sapiens, UniProt Q00526). The assay can be described thus: biochemical. Conditions: read-out: % enzyme activity, 1 μM; Run 1, Run 2.
Another assay deals with PAK1 (Homo sapiens, UniProt Q13153). Conditions: 1 μM; Run 1, Run 2.
PAK1, sequence (Q13153 whole entry): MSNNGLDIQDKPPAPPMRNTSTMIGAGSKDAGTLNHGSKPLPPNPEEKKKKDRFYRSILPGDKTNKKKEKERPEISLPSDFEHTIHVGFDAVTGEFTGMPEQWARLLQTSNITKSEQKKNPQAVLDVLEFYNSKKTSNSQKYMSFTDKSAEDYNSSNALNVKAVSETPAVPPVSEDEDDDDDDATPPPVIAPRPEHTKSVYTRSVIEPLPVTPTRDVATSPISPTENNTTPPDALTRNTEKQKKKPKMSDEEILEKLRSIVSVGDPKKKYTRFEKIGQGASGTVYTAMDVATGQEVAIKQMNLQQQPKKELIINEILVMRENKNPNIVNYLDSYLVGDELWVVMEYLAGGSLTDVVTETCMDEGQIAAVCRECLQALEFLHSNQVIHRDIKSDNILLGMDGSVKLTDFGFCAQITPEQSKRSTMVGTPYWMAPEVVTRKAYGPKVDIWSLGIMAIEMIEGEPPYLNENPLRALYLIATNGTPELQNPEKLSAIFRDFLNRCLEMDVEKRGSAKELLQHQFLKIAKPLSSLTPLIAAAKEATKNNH
A further assay addresses T2, FLT3 (Homo sapiens, UniProt P36888).
T2 construct: purchased Reaction Biology Corporation
T2 sequence (P36888 27-993): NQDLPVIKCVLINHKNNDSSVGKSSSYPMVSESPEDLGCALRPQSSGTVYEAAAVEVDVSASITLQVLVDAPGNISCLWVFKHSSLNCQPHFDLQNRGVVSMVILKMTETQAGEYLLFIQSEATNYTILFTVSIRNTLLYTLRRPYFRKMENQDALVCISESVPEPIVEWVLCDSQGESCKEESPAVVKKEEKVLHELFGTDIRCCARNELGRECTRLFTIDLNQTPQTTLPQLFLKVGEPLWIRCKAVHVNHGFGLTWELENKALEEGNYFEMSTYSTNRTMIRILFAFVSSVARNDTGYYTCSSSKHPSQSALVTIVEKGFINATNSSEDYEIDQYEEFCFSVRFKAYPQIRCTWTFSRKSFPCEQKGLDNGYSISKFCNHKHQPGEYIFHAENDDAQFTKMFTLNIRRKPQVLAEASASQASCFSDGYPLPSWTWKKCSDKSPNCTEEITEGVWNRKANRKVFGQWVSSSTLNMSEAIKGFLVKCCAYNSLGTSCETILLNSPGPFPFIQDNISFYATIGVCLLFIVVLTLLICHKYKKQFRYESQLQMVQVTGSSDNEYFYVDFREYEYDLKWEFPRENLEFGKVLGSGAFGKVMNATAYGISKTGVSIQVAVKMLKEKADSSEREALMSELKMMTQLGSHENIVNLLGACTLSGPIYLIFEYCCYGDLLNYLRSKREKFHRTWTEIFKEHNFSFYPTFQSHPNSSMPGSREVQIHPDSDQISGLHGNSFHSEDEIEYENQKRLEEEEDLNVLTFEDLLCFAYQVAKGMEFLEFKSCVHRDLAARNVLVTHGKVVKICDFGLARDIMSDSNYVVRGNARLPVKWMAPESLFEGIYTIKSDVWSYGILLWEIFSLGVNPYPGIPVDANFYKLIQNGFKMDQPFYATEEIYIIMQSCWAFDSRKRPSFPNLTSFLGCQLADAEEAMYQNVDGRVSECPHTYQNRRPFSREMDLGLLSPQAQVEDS
The assay can be described thus: 375-member kinase panel. The assay is classed as biochemical. Conditions: Run 1, Run 2; for % enzyme activity: 1 μM; for remaining activity at 1 µM: read-out: % enzyme activity, 1 μM.

The next assay concerns the target T3, PKCzeta (Homo sapiens, UniProt Q05513).
T3 sequence (Q05513 1-592): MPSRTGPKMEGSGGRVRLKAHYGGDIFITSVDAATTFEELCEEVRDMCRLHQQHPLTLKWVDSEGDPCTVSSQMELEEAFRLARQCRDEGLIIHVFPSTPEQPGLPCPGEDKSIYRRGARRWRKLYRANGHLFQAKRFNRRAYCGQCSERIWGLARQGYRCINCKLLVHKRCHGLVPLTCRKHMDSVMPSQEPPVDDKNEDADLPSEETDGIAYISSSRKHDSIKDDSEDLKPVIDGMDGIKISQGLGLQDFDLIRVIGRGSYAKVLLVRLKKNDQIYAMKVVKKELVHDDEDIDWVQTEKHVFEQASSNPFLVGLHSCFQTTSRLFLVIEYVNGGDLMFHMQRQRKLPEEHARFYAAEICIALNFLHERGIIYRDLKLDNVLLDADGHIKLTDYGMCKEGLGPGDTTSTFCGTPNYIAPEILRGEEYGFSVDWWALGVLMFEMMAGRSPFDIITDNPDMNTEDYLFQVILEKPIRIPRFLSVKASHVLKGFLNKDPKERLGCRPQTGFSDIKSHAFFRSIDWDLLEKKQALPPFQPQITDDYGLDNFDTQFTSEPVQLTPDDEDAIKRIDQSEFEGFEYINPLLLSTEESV
The assay can be described thus: biochemical. Conditions: read-out: % enzyme activity, 1 μM; Run 1, Run 2.

The target in a further assay is RSK4 (Homo sapiens, UniProt Q9UK32). Conditions: 1 μM; Run 1, Run 2.
RSK4, sequence (Q9UK32 whole entry): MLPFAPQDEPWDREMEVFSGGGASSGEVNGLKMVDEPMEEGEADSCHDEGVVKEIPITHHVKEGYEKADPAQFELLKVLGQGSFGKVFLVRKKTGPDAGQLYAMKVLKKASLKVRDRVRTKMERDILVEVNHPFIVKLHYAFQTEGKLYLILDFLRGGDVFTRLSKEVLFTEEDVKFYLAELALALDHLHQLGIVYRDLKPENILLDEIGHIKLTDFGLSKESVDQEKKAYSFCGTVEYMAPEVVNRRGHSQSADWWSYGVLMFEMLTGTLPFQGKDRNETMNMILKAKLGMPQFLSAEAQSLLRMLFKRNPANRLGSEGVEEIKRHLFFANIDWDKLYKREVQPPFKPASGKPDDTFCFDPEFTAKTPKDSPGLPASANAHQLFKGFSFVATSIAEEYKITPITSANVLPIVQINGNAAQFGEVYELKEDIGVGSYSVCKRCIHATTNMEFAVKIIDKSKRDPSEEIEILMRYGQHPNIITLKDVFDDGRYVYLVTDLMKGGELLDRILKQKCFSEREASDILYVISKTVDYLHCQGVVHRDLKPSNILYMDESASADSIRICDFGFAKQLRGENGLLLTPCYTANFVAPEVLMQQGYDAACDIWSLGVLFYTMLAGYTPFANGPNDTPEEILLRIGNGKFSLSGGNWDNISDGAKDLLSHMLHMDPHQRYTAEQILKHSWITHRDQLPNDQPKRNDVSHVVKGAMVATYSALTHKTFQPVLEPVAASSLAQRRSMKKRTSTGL
The target in the next assay is PIM2 (Homo sapiens, UniProt Q9P1W9). Conditions: 1 μM; Run 1, Run 2.
PIM2, sequence (Q9P1W9 whole entry): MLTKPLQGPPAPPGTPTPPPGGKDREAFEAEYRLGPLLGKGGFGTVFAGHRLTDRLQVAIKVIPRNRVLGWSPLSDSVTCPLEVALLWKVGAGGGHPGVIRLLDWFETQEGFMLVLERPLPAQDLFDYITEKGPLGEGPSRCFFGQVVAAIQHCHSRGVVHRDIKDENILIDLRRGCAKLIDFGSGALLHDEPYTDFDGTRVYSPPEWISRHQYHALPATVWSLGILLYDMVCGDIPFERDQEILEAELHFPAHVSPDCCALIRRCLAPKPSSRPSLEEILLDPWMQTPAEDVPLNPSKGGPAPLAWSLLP

From article PMC8213057, “Targeting ALK2: An Open Science Approach to Developing Therapeutics for the Treatment of Diffuse Intrinsic Pontine Glioma” (Journal of Medicinal Chemistry, 2020) come the findings set out here.

RAF1, sequence (P04049 whole entry): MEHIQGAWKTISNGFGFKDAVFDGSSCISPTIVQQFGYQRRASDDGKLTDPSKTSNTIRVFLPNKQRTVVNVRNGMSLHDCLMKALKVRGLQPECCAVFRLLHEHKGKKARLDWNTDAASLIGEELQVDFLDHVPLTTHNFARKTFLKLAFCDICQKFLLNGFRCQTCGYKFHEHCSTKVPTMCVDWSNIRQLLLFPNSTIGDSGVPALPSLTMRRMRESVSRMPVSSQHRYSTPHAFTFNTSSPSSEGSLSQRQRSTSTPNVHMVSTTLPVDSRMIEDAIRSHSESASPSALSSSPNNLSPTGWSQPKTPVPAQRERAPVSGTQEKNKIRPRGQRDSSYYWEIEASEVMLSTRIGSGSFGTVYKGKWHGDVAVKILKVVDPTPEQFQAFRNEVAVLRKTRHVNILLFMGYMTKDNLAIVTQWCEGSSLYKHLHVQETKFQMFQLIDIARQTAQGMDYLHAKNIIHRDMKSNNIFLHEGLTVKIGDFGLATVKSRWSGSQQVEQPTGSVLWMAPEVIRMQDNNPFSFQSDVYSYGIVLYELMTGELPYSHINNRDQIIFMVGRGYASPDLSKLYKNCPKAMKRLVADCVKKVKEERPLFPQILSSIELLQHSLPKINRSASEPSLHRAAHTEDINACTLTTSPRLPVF
CLK3, sequence (P49761 whole entry): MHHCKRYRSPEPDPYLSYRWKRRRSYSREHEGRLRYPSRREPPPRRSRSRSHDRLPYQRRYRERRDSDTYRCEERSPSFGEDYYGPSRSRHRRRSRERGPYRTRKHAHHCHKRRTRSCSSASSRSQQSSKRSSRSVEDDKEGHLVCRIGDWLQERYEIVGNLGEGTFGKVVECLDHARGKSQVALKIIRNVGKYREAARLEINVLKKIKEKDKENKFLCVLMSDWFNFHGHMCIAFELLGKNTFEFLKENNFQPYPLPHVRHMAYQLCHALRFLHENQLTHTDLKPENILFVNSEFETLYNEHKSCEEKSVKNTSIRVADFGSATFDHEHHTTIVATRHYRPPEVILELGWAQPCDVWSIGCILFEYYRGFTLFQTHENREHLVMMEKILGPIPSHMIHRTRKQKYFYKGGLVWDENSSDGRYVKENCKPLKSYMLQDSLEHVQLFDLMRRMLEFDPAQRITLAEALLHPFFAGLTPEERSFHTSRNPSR
CDK7/cyclin H, sequence (P50613 whole entry): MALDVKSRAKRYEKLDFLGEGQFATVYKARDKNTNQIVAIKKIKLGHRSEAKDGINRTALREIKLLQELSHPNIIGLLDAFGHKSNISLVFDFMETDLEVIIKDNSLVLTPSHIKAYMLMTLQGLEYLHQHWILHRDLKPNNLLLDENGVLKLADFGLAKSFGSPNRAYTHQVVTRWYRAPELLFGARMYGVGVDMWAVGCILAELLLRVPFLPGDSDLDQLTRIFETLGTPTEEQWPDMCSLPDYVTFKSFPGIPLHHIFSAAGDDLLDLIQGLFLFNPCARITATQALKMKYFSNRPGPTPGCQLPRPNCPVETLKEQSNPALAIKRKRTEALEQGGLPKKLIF
CDK7/cyclin H, sequence (P51946 whole entry partner): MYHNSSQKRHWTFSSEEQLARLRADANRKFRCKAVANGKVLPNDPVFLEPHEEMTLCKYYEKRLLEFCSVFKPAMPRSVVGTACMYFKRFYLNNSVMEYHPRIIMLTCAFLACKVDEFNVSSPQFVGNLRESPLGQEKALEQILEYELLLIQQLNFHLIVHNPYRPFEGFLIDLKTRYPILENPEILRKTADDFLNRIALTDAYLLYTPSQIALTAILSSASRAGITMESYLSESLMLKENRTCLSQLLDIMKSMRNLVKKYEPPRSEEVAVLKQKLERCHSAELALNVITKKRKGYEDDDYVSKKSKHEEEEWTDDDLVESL
CDK7/cyclin H, sequence (P51948 whole entry partner): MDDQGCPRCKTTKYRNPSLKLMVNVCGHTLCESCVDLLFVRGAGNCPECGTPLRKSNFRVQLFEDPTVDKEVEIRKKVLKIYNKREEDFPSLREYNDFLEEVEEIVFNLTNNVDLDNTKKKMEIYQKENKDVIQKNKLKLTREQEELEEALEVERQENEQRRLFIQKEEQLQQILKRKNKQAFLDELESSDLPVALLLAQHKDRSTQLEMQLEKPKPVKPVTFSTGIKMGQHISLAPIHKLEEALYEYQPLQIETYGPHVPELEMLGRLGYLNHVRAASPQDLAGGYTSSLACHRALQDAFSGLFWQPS
CDK3/cyclin E2, sequence (Q00526 whole entry): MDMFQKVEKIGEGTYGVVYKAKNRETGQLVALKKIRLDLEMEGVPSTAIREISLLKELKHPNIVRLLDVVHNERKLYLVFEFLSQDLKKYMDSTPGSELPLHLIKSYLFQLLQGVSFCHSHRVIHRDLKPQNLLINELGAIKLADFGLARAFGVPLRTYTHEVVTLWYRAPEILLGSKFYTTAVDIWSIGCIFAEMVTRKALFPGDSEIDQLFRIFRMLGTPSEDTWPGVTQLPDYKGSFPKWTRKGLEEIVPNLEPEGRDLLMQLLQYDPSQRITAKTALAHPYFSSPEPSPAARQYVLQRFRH
CDK3/cyclin E2, sequence (O96020 whole entry partner): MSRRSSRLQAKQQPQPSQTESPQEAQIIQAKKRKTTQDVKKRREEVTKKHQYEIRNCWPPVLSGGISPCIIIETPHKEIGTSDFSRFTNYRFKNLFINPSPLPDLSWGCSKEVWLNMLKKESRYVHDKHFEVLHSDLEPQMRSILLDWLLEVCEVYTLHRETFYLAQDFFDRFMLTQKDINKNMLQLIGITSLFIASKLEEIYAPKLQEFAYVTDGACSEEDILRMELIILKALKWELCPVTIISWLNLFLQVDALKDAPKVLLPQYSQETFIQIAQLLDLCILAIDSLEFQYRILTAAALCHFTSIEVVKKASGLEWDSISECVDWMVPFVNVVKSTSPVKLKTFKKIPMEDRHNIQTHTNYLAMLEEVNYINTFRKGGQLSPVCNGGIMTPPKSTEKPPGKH

On to `COc1cc(-c2cncc(-c3ccc(N4CCN(C)CC4)cc3)c2C)cc(F)c1C(N)=O` [Compound 26a, 2-Fluoro-6-methoxy-4-(4-methyl-5-(4-(4-methylpiperazin-1-yl)phenyl)pyridin-3-yl)benzamide], for which the “% enzyme activity” value is recorded as 78.57% at RAF1; 99.93% on c-MER; 93.27% at CDK7/cyclin H; 102.29% at PAK1; 76.15% on FLT3; 95.64% at RSK4. In addition, the “% enzyme activity” value at PIM2 came out at 95.51%. Also, the remaining activity at 1 µM turned out to be 103% on CLK3, 89.5% at CDK3/cyclin E2, 77.1% on FLT3 and 91.2% at PKCzeta.

Take `COc1cc(-c2cncc(-c3ccc(N4C[C@@H](C)N(C)[C@@H](C)C4)cc3)c2C)cc(F)c1C(N)=O` [Compound 26c, 2-Fluoro-6-methoxy-4-(4-methyl-5-(4-((3R,5S)-3,4,5-trimethylpiperazin-1-yl)phenyl)pyridin-3-yl)benzamide]: the “% enzyme activity” value at RAF1 is recorded as 83.85%; at c-MER, 96.34%; on CDK7/cyclin H it was 95.50%; at PAK1 it was 100.98%; on FLT3, 81.48%; at RSK4 it was 94.61%. Further, on PIM2, the “% enzyme activity” value came out at 98.82%. In addition, the remaining activity at 1 µM at CLK3 turned out to be 88.3%; at CDK3/cyclin E2 it was 86.2%; on FLT3, 84.3%; on PKCzeta, 92.5%.
